Earlier results on one compound are cited in patent US20080160064A1, “DEVICES AND METHODS FOR […]” (priority 2006, published 2008).

This data set has as its target hemoglobin (Homo sapiens, UniProt P68871+P69905). As to conditions: higher affinity than oxygen.

Sequence of hemoglobin (P69905 2-142 limits assumed): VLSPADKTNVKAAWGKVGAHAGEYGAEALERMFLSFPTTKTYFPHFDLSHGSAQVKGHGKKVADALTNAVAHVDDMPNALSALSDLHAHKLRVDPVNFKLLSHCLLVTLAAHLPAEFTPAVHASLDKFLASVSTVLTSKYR
Sequence of hemoglobin (P68871 2-147 limits assumed): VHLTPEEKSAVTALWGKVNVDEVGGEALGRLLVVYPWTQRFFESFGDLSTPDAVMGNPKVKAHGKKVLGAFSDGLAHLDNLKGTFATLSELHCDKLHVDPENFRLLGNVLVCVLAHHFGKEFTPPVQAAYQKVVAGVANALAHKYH

Regarding `[C-]#[O+]` [CO, Carbon monoxide], the “affinity for hemoglobin relative to oxygen” value is about 200 ×.
